Data as given in patent publication US6528528B2 (Warner-Lambert Company, priority 1997, dated 2003).
Read-outs that look alike come from different tables or passages of the source.

How the values were obtained:
[1] = molecular target: T1, rabbit reticulocyte 15-LO (Oryctolagus cuniculus, UniProt P12530); test: Rabbit Reticulocyte 15-LO Assay (h15LO); type: biochemical; details: for IC50: 2U rabbit reticulocyte 15-LO, 174 μM linoleic acid, 15 minutes at 4° C.; for h15LO, value given as bare %: concentration not given
T1 construct: Fifteen-lipoxygenase was obtained from phenylhydrazine-treated rabbits and purified per the method of Rapoport; from tissue; host or cells: reticulocytes of phenylhydrazine-treated rabbits
T1 sequence (P12530 1-663): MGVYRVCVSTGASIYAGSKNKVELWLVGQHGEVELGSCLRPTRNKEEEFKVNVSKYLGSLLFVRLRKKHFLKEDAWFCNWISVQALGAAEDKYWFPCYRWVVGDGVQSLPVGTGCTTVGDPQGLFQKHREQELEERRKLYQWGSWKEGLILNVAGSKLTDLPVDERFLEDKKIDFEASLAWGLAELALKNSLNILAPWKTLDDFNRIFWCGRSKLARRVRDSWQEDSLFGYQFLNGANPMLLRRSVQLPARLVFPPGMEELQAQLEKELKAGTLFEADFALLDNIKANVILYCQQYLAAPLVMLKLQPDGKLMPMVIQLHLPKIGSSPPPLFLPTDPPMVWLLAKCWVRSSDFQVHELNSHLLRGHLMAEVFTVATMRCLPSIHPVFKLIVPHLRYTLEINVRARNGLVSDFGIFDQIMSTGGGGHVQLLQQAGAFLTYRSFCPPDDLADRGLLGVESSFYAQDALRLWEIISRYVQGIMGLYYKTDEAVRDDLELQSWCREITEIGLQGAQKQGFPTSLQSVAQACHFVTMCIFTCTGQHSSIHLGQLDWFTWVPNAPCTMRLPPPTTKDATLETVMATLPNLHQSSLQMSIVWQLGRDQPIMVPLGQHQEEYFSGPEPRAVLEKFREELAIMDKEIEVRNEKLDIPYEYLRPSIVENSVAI
Outline: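 Linoleic acid oxidation to 13-HPODE measured at 4° C. over 15 minutes, using 174 μM substrate and 2U enzyme purified from phenylhydrazine-treated rabbits in PBS/0.2% Na cholate. Product peak areas calibrated with authentic 13-HODE; inhibition expressed versus maximal reaction.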

Compound	melting point [°C]	IC50 ([1]; Table 2) [nM]	also measured
COc1ccc(C(=O)Nc2ccccc2)cc1NCc1ccccc1 [Example 50, 3-Benzylamino-4-methoxy-N-phenyl-benzamide]	164 to 165	846	
CCc1ccc(C(=O)Nc2ccc(F)c(F)c2)cc1N [Example 19, 3-Amino-4-ethyl-N-(3,4-difluorophenyl)-benzamide]	108 to 110		IC50 ([1]; Table 1): 1100 nM
COc1ccc(C(=O)Nc2ccccc2)cc1NC(=S)Nc1cccnc1 [Example 81, 4-Methoxy-N-phenyl-3-(3-pyridin-3-yl-thioureido)-benzamide]	178 to 179	19	
COc1ccc(C(=O)Nc2ccccc2)cc1NC(=S)Nc1ccc(S(N)(=O)=O)cc1 [Example 90, 4-Methoxy-N-phenyl-3-[3-(4-sulfamoyl-phenyl)-thioureido]-benzamide]	193 to 195	24	
COc1ccc(C(=O)Nc2ccccc2)cc1NC(=S)Nc1cccc(C)c1 [Example 95, 4-Methoxy-N-phenyl-3-(3-m-tolyl-thioureido)-benzamide]	168 to 171	11	
COc1ccc(C(=O)Nc2ccc(C)cc2)cc1N [Example 7, 3-Amino-4-methoxy-N-(4-methylphenyl)-benzamide]	190 to 194		inhibition at 10 µM ([1]; Table 1, read-out: h15LO % Inhibition at 10 μM): 67%
COc1ccc(C(=O)Nc2ccccc2)cc1NC(=S)Nc1ccc(S(=O)(=O)O)cc1 [Example 82, 4-[3-(2-Methoxy-5-phenylcarbamoyl-phenyl)-thioureido]-benzenesulfonic Acid]	> 280	124	
COc1ccc(NC(=S)Nc2cc(C(=O)Nc3ccccc3)ccc2OC)cc1 [Example 83, 4-Methoxy-3-[3-(4-methoxy-phenyl)-thioureido]-N-phenyl-benzamide]	168 to 169	81	
COc1ccc(C(=O)Nc2cc(C)cc(C)c2)cc1N [Example 11, 3-Amino-4-methoxy-N-(3,5-dimethylphenyl)-benzamide]	155 to 162		IC50 ([1]; Table 1): 390 nM
COc1ccc(NC(=O)c2ccc(OC)c(NC(=S)Nc3cc(Cl)cc(Cl)c3)c2)cc1 [Example 79, 3-[3-(3,5-Dichlorophenyl)-thioureido]-4-methoxy-N-(4-methoxy-phenyl)-benzamide]	175 to 182	127	
Cc1ccc(C(=O)Nc2ccccc2)cc1NC(=S)Nc1cc(Cl)cc(Cl)c1 [Example 71, 3-[3-(3,5-Dichlorophenyl)-thioureido]-4-methyl-N-phenyl-benzamide]	182 to 184	526	
COc1ccc(C(=O)Nc2ccc(C)cc2)cc1NC(=S)Nc1cc(Cl)cc(Cl)c1 [Example 94, 3-[3-(3,5-Dichlorophenyl)-thioureido]-4-methoxy-N-p-tolyl-benzamide]	178 to 180	42	
COc1ccc(C(=O)Nc2ccc(F)cc2)cc1Nc1ccccc1 [Example 39, 3-Phenylamino-4-methoxy-N-(4-fluorophenyl)-benzamide]	151 to 152	50	
COc1ccccc1Nc1cccc(C(=O)Nc2ccccc2)c1 [Example 27, 3-(2-Methoxy-phenylamino)-N-phenyl-benzamide]	153 to 154		inhibition at 10 µM ([1]; 0.25 h, Table 2, read-out: h15LO % @ 10 μM): 48%
COc1ccc(C(=O)Nc2cccc(Cl)c2)cc1N [Example 16, 3-Amino-4-methoxy-N-(3-chlorophenyl)-benzamide]	144 to 146		IC50 ([1]; Table 1): 79 nM

Further lines, with some results ahead:

melting point [°C]	IC50 ([1]; Table 2) [nM]	Compound	also measured
191 to 192	26	COc1ccc(C(=O)Nc2cccnc2)cc1NC(=S)Nc1cccc(C(=O)O)c1 [Example 112, 3-{3-[2-Methoxy-5-(pyridin-3-ylcarbamoyl)-phenyl]-thioureido}-benzoic acid]	
151 to 152		CCCCCCCCCCCCS(=O)(=O)Nc1cc(C(=O)Nc2ccc(Cl)c(Cl)c2)ccc1OC [Example 194, 3-(Dodecane-1-sulfonylamino)-4-methoxy-N-(3,4-dichloro-phenyl)-benzamide]	h15LO, value given as bare % ([1]; Table 2): 93.61%
222 to 228	49	COc1ccc(C(=O)Nc2ccccc2)cc1NS(=O)(=O)c1cc(Cl)cc(Cl)c1 [Example 118, 3-(3,5-Dichloro-benzenesulfonylamino)-4-methoxy-N-phenyl-benzamide]	
195 to 196	13	COc1ccc(C(=O)Nc2ccc(C)c(Cl)c2)cc1NC(=S)Nc1cc(Cl)cc(Cl)c1 [Example 104, N-(3-Chloro-4-methylphenyl)-3-[3-(3,5-dichlorophenyl)-thioureido]-4-methoxy-benzamide]	
139 to 140		Nc1cc(C(=O)Nc2ccc(F)cc2)ccc1OC(F)(F)F [Example 146, 3-Amino-4-trifluoromethoxy-N-(4-fluoro-phenyl)-benzamide]	h15LO, value given as bare % ([1]; Table 2): 35.29%
160 to 162	330	COC(=O)c1cccc(NC(=O)c2ccc(OC)c(N)c2)c1 [Example 149, 3-(3-Amino-4-methoxy-benzoylamino)-benzoic Acid Methyl Ester]	
172 to 174	1000	COc1ccc(C(=O)Nc2ccccc2)cc1NC(=S)Nc1ccccc1C [Example 98, 4-Methoxy-N-phenyl-3-(3-o-tolyl-thioureido)-benzamide]	
142 to 144		COc1ccc(C(=O)Nc2ccccc2)cc1NCCc1cccc(C(F)(F)F)c1 [Example 253, 4-Methoxy-N-phenyl-3-[2-(3-trifluoromethyl-phenyl)-ethylamino]-benzamide]	h15LO, value given as bare % ([1]; Table 2): 60.56%
183 to 186	44	COc1ccc(NC(=O)c2ccc(Cl)c(Cl)c2)cc1NC(=S)Nc1cc(Cl)cc(Cl)c1 [Example 115, 3,4-Dichloro-N-{3-[3-(3,5-dichlorophenyl)-thioureido]-4-methoxyphenyl}-benzamide]	
191 to 193	48	COc1ccc(C(=O)Nc2ccccc2)cc1NS(=O)(=O)c1ccc(Cl)c(Cl)c1 [Example 136, 3-(3,4-Dichloro-benzenesulfonylamino)-4-methoxy-N-phenyl-benzamide]	
197 to 199	31	COc1ccc(C(=O)Nc2ccccc2)cc1NS(=O)(=O)c1cccc(Cl)c1 [Example 123, 3-(3-Chloro-benzenesulfonylamino)-4-methoxy-N-phenyl-benzamide]	
166 to 167	290	CCc1ccc(C(=O)Nc2ccccc2)cc1NC(=S)Nc1cccc(C(F)(F)F)c1 [Example 110, 4-Ethyl-N-phenyl-3-[3-(3-trifluoromethylphenyl)-thioureido]-benzamide]	
231 to 232	25	COc1ccc(C(=O)Nc2ccccc2)cc1NS(=O)(=O)c1cccc2c(N(C)C)cccc12 [Example 143, 3-(5-Dimethylaminonaphthalene-1-sulfonylamino)-4-methoxy-N-phenyl-benzamide]	
206 to 208		COc1ccc(C(=S)Nc2ccccc2)cc1NS(=O)(=O)c1cc(Cl)cc(Cl)c1 [Example 208, 3-(3,5-Dichloro-benzenesulfonylamino)-4-methoxy-N-phenyl-thiobenzamide]	h15LO, value given as bare % ([1]; Table 2): 98.52%
260 to 261	609	COc1ccc(C(=O)Nc2ccccc2)cc1NS(=O)(=O)c1sc(NC(C)=O)nc1C [Example 131, 3-(2-Acetylamino-4-methylthiazole-5-sulfonylamino)-4-methoxy-N-phenyl-benzamide]	
184 to 186	25	COc1ccc(S(=O)(=O)Nc2cc(C(=O)Nc3ccccc3)ccc2OC)cc1 [Example 121, 3-(4-Methoxy-benzenesulfonylamino)-4-methoxy-N-phenyl-benzamide]	
169 to 170	79	CCc1ccc(C(=O)Nc2ccc(F)c(F)c2)cc1NC(=S)Nc1cccc(C(F)(F)F)c1 [Example 111, 4-Ethyl-N-(3,4-difluorophenyl)-3-[3-(3-trifluoromethyl-phenyl)-thioureido]-benzamide]	
172 to 174	120	O=C(Nc1ccc(F)c(NC(=S)Nc2cccc(C(F)(F)F)c2)c1)c1ccc(Cl)c(Cl)c1 [Example 114, 3,4-Dichloro-N-{4-fluoro-3-[3-(3-trifluoromethylphenyl)-thioureido]-phenyl}-benzamide]	
196 to 197	52	COc1ccc(C(=O)Nc2ccccc2)cc1NC(=S)Nc1cccc(C(=O)O)c1 [Example 113, 3-[3-(2-Methoxy-5-phenylcarbamoyl-phenyl)-thioureido]-benzoic Acid]	
